Test results: BindingDB's records for doi:10.1124/jpet.102.047092 (Case Western Reserve University, 2003)
pKi: −log10 of the molar value.

What was measured:
[1] = biological target: Sodium-dependent dopamine transporter (Homo sapiens, UniProt Q01959)
[2] = biological target: T1, Alpha-1A adrenergic receptor (Homo sapiens, UniProt P35348)
T1 sequence (P35348 whole entry): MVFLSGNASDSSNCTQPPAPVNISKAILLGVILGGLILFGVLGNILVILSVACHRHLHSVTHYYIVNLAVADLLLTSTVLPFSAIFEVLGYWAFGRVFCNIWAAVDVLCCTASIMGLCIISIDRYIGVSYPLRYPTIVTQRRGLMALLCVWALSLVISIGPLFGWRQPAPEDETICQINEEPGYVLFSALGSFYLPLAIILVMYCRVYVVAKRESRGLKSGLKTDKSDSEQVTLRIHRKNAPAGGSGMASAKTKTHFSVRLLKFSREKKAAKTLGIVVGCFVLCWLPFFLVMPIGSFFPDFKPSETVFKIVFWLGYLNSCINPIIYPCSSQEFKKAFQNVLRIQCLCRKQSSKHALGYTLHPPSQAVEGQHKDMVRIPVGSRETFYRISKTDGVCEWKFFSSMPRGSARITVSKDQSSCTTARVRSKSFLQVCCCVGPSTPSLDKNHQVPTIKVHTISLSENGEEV

[3] = biological target: T2, Muscarinic acetylcholine receptor M2 (Homo sapiens, UniProt P08172)
T2 sequence (P08172 whole entry): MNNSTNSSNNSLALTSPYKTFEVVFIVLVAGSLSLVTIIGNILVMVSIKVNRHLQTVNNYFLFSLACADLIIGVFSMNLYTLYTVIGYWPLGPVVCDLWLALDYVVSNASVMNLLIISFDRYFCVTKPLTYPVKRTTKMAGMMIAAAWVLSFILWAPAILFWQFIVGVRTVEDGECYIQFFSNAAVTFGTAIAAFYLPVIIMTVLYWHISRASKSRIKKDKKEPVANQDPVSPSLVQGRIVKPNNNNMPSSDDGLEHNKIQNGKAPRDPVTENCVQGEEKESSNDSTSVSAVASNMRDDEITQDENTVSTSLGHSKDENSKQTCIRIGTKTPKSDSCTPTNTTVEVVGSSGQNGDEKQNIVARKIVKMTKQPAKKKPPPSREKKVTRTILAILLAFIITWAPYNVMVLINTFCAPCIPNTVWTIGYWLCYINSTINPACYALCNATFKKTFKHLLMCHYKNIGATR

[4] = biological target: T3, Muscarinic acetylcholine receptor M1 (Homo sapiens, UniProt P11229)
T3 sequence (P11229 whole entry): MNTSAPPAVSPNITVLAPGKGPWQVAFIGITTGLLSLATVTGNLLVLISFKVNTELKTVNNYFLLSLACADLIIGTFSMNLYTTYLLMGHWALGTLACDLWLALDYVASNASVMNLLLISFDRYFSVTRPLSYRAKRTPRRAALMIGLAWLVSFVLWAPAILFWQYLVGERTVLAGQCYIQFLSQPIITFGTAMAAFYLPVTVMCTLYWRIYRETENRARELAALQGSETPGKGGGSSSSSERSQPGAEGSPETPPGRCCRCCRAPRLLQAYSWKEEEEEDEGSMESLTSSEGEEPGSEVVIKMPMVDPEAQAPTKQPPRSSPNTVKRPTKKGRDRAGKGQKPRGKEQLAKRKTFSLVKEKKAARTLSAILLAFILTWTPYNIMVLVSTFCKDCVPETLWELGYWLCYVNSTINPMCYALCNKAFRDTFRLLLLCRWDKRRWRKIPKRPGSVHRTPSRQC

[5] = biological target: T4, Alpha-2A adrenergic receptor (Homo sapiens, UniProt P08913)
T4 sequence (P08913 whole entry): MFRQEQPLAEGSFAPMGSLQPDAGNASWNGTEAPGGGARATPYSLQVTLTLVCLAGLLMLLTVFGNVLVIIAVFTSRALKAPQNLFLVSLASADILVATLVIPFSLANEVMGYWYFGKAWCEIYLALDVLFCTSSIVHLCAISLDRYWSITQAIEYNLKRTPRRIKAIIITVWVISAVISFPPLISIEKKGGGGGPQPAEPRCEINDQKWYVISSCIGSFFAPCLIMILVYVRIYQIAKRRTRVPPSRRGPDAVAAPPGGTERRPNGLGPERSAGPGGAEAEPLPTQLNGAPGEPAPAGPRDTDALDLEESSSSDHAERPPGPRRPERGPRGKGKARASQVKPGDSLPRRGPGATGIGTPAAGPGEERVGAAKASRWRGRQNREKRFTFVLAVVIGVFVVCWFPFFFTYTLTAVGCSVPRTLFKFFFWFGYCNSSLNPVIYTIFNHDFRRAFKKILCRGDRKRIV

D(1B) dopamine receptor = D(1B) dopamine receptor (Homo sapiens, UniProt P21918)
D(1B) dopamine receptor, sequence (P21918 whole entry): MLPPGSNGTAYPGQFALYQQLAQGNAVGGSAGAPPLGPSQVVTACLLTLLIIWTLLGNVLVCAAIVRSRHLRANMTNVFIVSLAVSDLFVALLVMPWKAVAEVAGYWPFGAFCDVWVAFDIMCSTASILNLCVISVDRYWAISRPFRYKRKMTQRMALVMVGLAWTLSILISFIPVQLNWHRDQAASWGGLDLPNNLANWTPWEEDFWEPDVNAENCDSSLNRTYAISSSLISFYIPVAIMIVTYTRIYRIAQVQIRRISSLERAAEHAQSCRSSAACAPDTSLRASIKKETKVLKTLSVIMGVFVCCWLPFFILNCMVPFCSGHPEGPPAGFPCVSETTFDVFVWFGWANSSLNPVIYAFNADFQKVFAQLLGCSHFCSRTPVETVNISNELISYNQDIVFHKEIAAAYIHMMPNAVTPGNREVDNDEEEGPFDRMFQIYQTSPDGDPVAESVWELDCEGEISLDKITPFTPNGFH

[6] = biological target: Beta-2 adrenergic receptor (Rattus norvegicus, UniProt P10608)
Beta-2 adrenergic receptor, sequence (P10608 whole entry): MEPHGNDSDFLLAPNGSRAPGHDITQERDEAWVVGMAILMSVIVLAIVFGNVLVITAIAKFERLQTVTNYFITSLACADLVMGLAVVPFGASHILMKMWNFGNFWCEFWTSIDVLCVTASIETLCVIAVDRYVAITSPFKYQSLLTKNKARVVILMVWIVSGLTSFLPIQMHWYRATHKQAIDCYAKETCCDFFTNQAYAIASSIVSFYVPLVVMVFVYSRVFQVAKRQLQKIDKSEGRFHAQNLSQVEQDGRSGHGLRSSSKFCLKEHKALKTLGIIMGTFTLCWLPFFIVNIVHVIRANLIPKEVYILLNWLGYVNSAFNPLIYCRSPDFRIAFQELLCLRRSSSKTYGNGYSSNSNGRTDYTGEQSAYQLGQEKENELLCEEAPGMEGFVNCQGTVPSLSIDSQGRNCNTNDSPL

[7] = biological target: T5, 5-hydroxytryptamine receptor 1A (Homo sapiens, UniProt P08908)
T5 sequence (P08908 whole entry): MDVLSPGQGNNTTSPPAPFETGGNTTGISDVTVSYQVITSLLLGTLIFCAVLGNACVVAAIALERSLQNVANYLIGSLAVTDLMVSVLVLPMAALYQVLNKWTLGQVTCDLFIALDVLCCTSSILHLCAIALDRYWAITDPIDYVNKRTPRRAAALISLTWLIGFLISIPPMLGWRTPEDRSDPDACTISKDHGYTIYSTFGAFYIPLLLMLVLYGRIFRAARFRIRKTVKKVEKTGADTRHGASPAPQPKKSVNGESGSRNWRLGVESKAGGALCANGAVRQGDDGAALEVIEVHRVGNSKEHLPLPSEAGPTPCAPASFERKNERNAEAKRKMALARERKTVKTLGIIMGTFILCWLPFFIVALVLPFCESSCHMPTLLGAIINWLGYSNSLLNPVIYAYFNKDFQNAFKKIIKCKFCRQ

[8] = biological target: Kappa-type opioid receptor (Cavia porcellus, UniProt P41144)
Kappa-type opioid receptor, sequence (P41144 whole entry): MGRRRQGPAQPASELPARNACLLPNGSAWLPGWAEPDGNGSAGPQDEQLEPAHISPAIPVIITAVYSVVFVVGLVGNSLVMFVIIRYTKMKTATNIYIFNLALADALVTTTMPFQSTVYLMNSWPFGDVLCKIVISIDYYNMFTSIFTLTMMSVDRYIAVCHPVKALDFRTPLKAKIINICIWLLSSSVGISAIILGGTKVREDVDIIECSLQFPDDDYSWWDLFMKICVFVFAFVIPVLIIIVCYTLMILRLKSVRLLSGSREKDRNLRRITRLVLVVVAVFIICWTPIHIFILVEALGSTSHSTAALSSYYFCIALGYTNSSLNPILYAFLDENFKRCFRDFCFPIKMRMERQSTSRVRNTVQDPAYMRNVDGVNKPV

Measured: pKi

Sodium-dependent dopamine transporter, sequence (Q01959 whole entry): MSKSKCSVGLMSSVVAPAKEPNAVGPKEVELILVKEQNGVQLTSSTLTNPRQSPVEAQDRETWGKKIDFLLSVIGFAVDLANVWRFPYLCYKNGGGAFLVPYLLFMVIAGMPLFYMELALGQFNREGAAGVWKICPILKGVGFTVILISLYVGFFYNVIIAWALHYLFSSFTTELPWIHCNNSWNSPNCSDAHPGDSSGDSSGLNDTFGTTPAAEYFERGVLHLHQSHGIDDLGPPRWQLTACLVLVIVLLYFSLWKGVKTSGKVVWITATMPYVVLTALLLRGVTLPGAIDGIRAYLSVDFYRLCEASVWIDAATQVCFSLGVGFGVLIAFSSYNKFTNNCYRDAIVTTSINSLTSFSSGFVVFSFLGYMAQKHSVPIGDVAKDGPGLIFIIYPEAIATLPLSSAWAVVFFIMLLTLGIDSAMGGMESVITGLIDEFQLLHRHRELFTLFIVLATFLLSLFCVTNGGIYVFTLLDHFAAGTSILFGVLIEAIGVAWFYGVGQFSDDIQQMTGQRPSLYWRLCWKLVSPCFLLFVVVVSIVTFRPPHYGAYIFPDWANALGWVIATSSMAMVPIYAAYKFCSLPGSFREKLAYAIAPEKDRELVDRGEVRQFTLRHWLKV

N[C@@H](CCS(=O)(=O)O)C(=O)O (racemic)
< 5.00: all assays above

N[C@@H](CCS)C(=O)O (racemic) [CAS_778]
< 5.00: all assays above

NC(CS(=O)O)C(=O)O (stereo not drawn) [CAS_109]
< 5.00: all assays above

NC(CSSCC(N)C(=O)O)C(=O)O (stereo not drawn) [CAS_595]
< 5.00: all assays above

N[C@@H](CS)C(=O)O [CAS_5862]
< 5.00: all assays above

CSCC[C@@H](N)C(=O)O [CAS_6137]
< 5.00: all assays above

N[C@H](CCS(=O)(=O)O)C(=O)O [D-homocysteic acid]
< 5.00: all assays above

N[C@H](CCS(=O)O)C(=O)O [D-homocysteine sulfinic acid]
< 5.00: all assays above

N[C@@H]1CCSC1=O [D-homocysteine thiolactone]
< 5.00: all assays above

N[C@H](CS(=O)(=O)O)C(=O)O [L-cysteic acid]
< 5.00: all assays above

N[C@@H](CCS(=O)O)C(=O)O [L-homocysteine sulfinic acid]
< 5.00: all assays above

N[C@H]1CCSC1=O [NSC_134505]
< 5.00: all assays above
